# What was measured:
# Format in all cases: cell-based
# Enterobacter cloacae = test: MIC against Gram-negative bacteria: Enterobacter cloacae
# Procedure, shortened: (§1)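 First, colonies from LB agar were grown in LB at 37° C, 185 rpm, to McFarland turbidity 0.5, then centrifuged and resuspended in fresh LB. Next, wells received 5×10^5 CFU/mL bacteria plus two-fold serially diluted EGF domain protein (triplicate). Finally, plates were shaken at 37° C and the no-growth concentration taken as MIC.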
# Proteus vulgaris = test: MIC against Gram-negative bacteria: Proteus vulgaris
# Procedure, shortened: as §1
# Klebsiella pneumonia = test: MIC against Gram-negative bacteria: Klebsiella pneumonia
# Procedure, shortened: as §1
# E. coli BL21 = test: MIC against Gram-negative bacteria: E. coli BL21; conditions: for MIC (μg/mL) E. coli BL21 / MIC: E. coli BL21
# Procedure, shortened: as §1
# Citrobacter diversus = test: MIC against Gram-negative bacteria: Citrobacter diversus
# Procedure, shortened: as §1
# Moraxella catarrhalis = test: MIC against Gram-negative bacteria: Moraxella catarrhalis
# Procedure, shortened: as §1
# Aeromonas hydrophila = test: MIC against Gram-negative bacteria: Aeromonas hydrophila
# Procedure, shortened: as §1
# Serratia marcescens = test: MIC against Gram-negative bacteria: Serratia marcescens
# Procedure, shortened: as §1
# Pseudomonas aeruginosa = test: MIC against Gram-negative bacteria: Pseudomonas aeruginosa
# Procedure, shortened: as §1
# E. coli DH5α = test: Antibacterial activity: MIC and growth curve against E. coli DH5α in 96-well plate; conditions: minimal inhibitory concentration against E. coli DH5α; 96-well plate, 5×10^5 CFU/mL, 37° C., judged after 8 h
# Procedure, shortened: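 Log-phase DH5α (OD600 about 0.5, 37° C, 185 rpm in LB) was pelleted, resuspended in fresh LB and seeded at 5×10^5 CFU/mL with recombinant protein at 50, 25 and 12.5 μg/mL (two-fold series), in triplicate. Plates were shaken at 175 rpm, 37° C, and OD600 was read every 30 min. MIC was the lowest concentration with no growth.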
# Proteus mirabilis = test: MIC against Gram-negative bacteria: Proteus mirabilis
# Procedure, shortened: as §1
# [1] = E. cloacae, 10 h cultivation at 37° C., 5×10^5 CFU/mL
# [2] = P. vulgaris, 10 h cultivation at 37° C., 5×10^5 CFU/mL
# [3] = K. pneumonia, 10 h cultivation at 37° C., 5×10^5 CFU/mL
# [4] = 10 h cultivation at 37° C., 5×10^5 CFU/mL
# [5] = C. diversus, 10 h cultivation at 37° C., 5×10^5 CFU/mL
# [6] = M. catarrhalis, 10 h cultivation at 37° C., 5×10^5 CFU/mL
# [7] = A. hydrophila, 10 h cultivation at 37° C., 5×10^5 CFU/mL
# [8] = S. marcescens, 10 h cultivation at 37° C., 5×10^5 CFU/mL
# [9] = P. aeruginosa, 10 h cultivation at 37° C., 5×10^5 CFU/mL
# [10] = P. mirabilis, 10 h cultivation at 37° C., 5×10^5 CFU/mL
# [11] = 96-well plate, 5×10^5 CFU/mL, 37° C., 10 h
# [12] = 10 h cultivation at 37° C., 5×10^5 CFU/mL, two-fold serial dilution
substance,measurement,setting,value
PRT192 (CPGSGERRICSHHGVCSNEGKCICQPDWTGKDC; listed as Homo sapiens),MIC (μg/mL) E. cloacae,Enterobacter cloacae; [1],25 µg/mL
same,MIC (μg/mL) P. vulgaris,Proteus vulgaris; [2],50 µg/mL
same,MIC (μg/mL) K. pneumonia,Klebsiella pneumonia; [3],12.5 µg/mL
same,MIC (μg/mL) E. coli BL21,E. coli BL21; [4],50 µg/mL
same,MIC (μg/mL) C. diversus,Citrobacter diversus; [5],25 µg/mL
same,MIC (μg/mL) M. catarrhalis,Moraxella catarrhalis; [6],12.5 µg/mL
same,MIC (μg/mL) A. hydrophila,Aeromonas hydrophila; [7],50 µg/mL
same,MIC (μg/mL) S. marcescens,Serratia marcescens; [8],12.5 µg/mL
same,MIC (μg/mL) P. aeruginosa,Pseudomonas aeruginosa; [9],25 µg/mL
same,MIC,E. coli DH5α,25 µg/mL
same,MIC (μg/mL) P. mirabilis,Proteus mirabilis; [10],25 µg/mL
PRT77 (RSGRCTPGVCKNGGTCVNLLVGGFKCDCPSGDFEKPYCQ; listed as Homo sapiens),MIC (μg/mL) E. cloacae,"Enterobacter cloacae; Enterobacter cloacae, 96-well plate, 5×10^5 CFU/mL, 37° C., 10 h",25 µg/mL
same,MIC (μg/mL) P. vulgaris,"Proteus vulgaris; Proteus vulgaris, 96-well plate, 5×10^5 CFU/mL, 37° C., 10 h",50 µg/mL
same,MIC (μg/mL) K. pneumonia,"Klebsiella pneumonia; Klebsiella pneumonia, 96-well plate, 5×10^5 CFU/mL, 37° C., 10 h",50 µg/mL
same,MIC (μg/mL) E. coli BL21,E. coli BL21; [11],12.5 µg/mL
same,MIC (μg/mL) C. diversus,"Citrobacter diversus; Citrobacter diversus, 96-well plate, 5×10^5 CFU/mL, 37° C., 10 h",50 µg/mL
same,MIC (μg/mL) M. catarrhalis,"Moraxella catarrhalis; Moraxella catarrhalis, 96-well plate, 5×10^5 CFU/mL, 37° C., 10 h",12.5 µg/mL
same,MIC (μg/mL) A. hydrophila,"Aeromonas hydrophila; Aeromonas hydrophila, 96-well plate, 5×10^5 CFU/mL, 37° C., 10 h",12.5 µg/mL
same,MIC (μg/mL) S. marcescens,"Serratia marcescens; Serratia marcescens, 96-well plate, 5×10^5 CFU/mL, 37° C., 10 h",50 µg/mL
same,MIC (μg/mL) P. aeruginosa,"Pseudomonas aeruginosa; Pseudomonas aeruginosa, 96-well plate, 5×10^5 CFU/mL, 37° C., 10 h",25 µg/mL
same,MIC,E. coli DH5α,25 µg/mL
same,MIC (μg/mL) P. mirabilis,"Proteus mirabilis; Proteus mirabilis, 96-well plate, 5×10^5 CFU/mL, 37° C., 10 h",50 µg/mL
PRT458 (ECSRLCRNGYCTPTGKCCCSPGWEGDFC; listed as Homo sapiens),MIC against E. cloacae,Enterobacter cloacae; [11],12.5 µg/mL
same,MIC against P. vulgaris,Proteus vulgaris; [11],25 µg/mL
same,MIC against K. pneumonia,Klebsiella pneumonia; [11],12.5 µg/mL
same,MIC against E. coli BL21,E. coli BL21; [11],12.5 µg/mL
same,MIC against C. diversus,Citrobacter diversus; [11],12.5 µg/mL
same,MIC against M. catarrhalis,Moraxella catarrhalis; [11],25 µg/mL
same,MIC against A. hydrophila,Aeromonas hydrophila; [11],25 µg/mL
same,MIC against S. marcescens,Serratia marcescens; [11],12.5 µg/mL
same,MIC against P. aeruginosa,Pseudomonas aeruginosa; [11],12.5 µg/mL
same,MIC,E. coli DH5α,50 µg/mL
same,MIC against P. mirabilis,Proteus mirabilis; [11],12.5 µg/mL
PRT698 (DVDECARSPPPCTYGRCENTEGSFQCVCPMGFQPNTAGSECE; listed as Homo sapiens),MIC E. cloacae,Enterobacter cloacae; [11],25 µg/mL
same,MIC P. vulgaris,Proteus vulgaris; [11],25 µg/mL
same,MIC K. pneumonia,Klebsiella pneumonia; [11],50 µg/mL
same,MIC E. coli BL21,E. coli BL21; [11],25 µg/mL
same,MIC C. diversus,Citrobacter diversus; [11],25 µg/mL
same,MIC M. catarrhalis,Moraxella catarrhalis; [11],50 µg/mL
same,MIC A. hydrophila,Aeromonas hydrophila; [11],12.5 µg/mL
same,MIC S. marcescens,Serratia marcescens; [11],12.5 µg/mL
same,MIC P. aeruginosa,Pseudomonas aeruginosa; [11],12.5 µg/mL
same,MIC,E. coli DH5α,50 µg/mL
same,MIC P. mirabilis,Proteus mirabilis; [11],25 µg/mL
PRT1023 (PINYCETGLHNCDIPQRAQCIYTGGSSYTCSCLPGFSGDGQACQ; listed as Homo sapiens),MIC,"Enterobacter cloacae; E. cloacae, 10 h cultivation at 37° C.",25 µg/mL
same,MIC,"Proteus vulgaris; P. vulgaris, 10 h cultivation at 37° C.",50 µg/mL
same,MIC,"Klebsiella pneumonia; K. pneumonia, 10 h cultivation at 37° C.",12.5 µg/mL
same,MIC,E. coli BL21; 10 h cultivation at 37° C.,12.5 µg/mL
same,MIC,"Citrobacter diversus; C. diversus, 10 h cultivation at 37° C.",25 µg/mL
same,MIC,"Moraxella catarrhalis; M. catarrhalis, 10 h cultivation at 37° C.",12.5 µg/mL
same,MIC,"Aeromonas hydrophila; A. hydrophila, 10 h cultivation at 37° C.",12.5 µg/mL
same,MIC,"Serratia marcescens; S. marcescens, 10 h cultivation at 37° C.",12.5 µg/mL
same,MIC,"Pseudomonas aeruginosa; P. aeruginosa, 10 h cultivation at 37° C.",25 µg/mL
same,MIC,E. coli DH5α,25 µg/mL
same,MIC,"Proteus mirabilis; P. mirabilis, 10 h cultivation at 37° C.",12.5 µg/mL
PRT160 (KIDYCILDPCRNGATCISSLSGFTCQCPEGYFGSACE; listed as Homo sapiens),MIC (μg/mL) E. cloacae,Enterobacter cloacae; [1],25 µg/mL
same,MIC (μg/mL) P. vulgaris,Proteus vulgaris; [2],25 µg/mL
same,MIC (μg/mL) K. pneumonia,Klebsiella pneumonia; [3],25 µg/mL
same,MIC (μg/mL) E. coli BL21,E. coli BL21; [4],25 µg/mL
same,MIC (μg/mL) C. diversus,Citrobacter diversus; [5],12.5 µg/mL
same,MIC (μg/mL) M. catarrhalis,Moraxella catarrhalis; [6],25 µg/mL
same,MIC (μg/mL) A. hydrophila,Aeromonas hydrophila; [7],25 µg/mL
same,MIC (μg/mL) S. marcescens,Serratia marcescens; [8],12.5 µg/mL
same,MIC (μg/mL) P. aeruginosa,Pseudomonas aeruginosa; [9],12.5 µg/mL
same,MIC,E. coli DH5α,12.5 µg/mL
same,MIC (μg/mL) P. mirabilis,Proteus mirabilis; [10],12.5 µg/mL
PRT1135 (NLDDCASRPCQRGARCRDRVHDFDCLCPSGYGGKTCE; listed as Homo sapiens),MIC E. cloacae,Enterobacter cloacae; [12],25 µg/mL
same,MIC P. vulgaris,Proteus vulgaris; [12],25 µg/mL
same,MIC K. pneumonia,Klebsiella pneumonia; [12],50 µg/mL
same,MIC E. coli BL21,E. coli BL21; [12],50 µg/mL
same,MIC C. diversus,Citrobacter diversus; [12],12.5 µg/mL
same,MIC M. catarrhalis,Moraxella catarrhalis; [12],25 µg/mL
same,MIC A. hydrophila,Aeromonas hydrophila; [12],25 µg/mL
same,MIC S. marcescens,Serratia marcescens; [12],12.5 µg/mL
same,MIC P. aeruginosa,Pseudomonas aeruginosa; [12],100 µg/mL
same,MIC,E. coli DH5α,25 µg/mL
same,MIC P. mirabilis,Proteus mirabilis; [12],50 µg/mL
PRT567 (CTCDPAGSQNEGICDSYTDFSTGLIAGQCRCKLNVEGEHCDVCKEGFYDLSSEDPFGCKS; listed as Homo sapiens),MIC against E. cloacae,Enterobacter cloacae; [11],50 µg/mL
same,MIC against P. vulgaris,Proteus vulgaris; [11],12.5 µg/mL
same,MIC against K. pneumonia,Klebsiella pneumonia; [11],25 µg/mL
same,MIC against E. coli BL21,E. coli BL21; [11],25 µg/mL
same,MIC against C. diversus,Citrobacter diversus; [11],12.5 µg/mL
same,MIC against M. catarrhalis,Moraxella catarrhalis; [11],50 µg/mL
same,MIC against A. hydrophila,Aeromonas hydrophila; [11],25 µg/mL
same,MIC against S. marcescens,Serratia marcescens; [11],12.5 µg/mL
same,MIC against P. aeruginosa,Pseudomonas aeruginosa; [11],12.5 µg/mL
same,MIC,E. coli DH5α,50 µg/mL
same,MIC against P. mirabilis,Proteus mirabilis; [11],12.5 µg/mL
PRT797 (WGPNCSVSCSCENGGSCSPEDGSCECAPGFRGPLCQ; listed as Homo sapiens),MIC (μg/mL) E. cloacae,Enterobacter cloacae; [1],50 µg/mL
same,MIC (μg/mL) P. vulgaris,Proteus vulgaris; [2],12.5 µg/mL
same,MIC (μg/mL) K. pneumonia,Klebsiella pneumonia; [3],25 µg/mL
same,MIC (μg/mL) E. coli BL21,E. coli BL21; [4],12.5 µg/mL
same,MIC (μg/mL) C. diversus,Citrobacter diversus; [5],50 µg/mL
same,MIC (μg/mL) M. catarrhalis,Moraxella catarrhalis; [6],12.5 µg/mL
same,MIC (μg/mL) A. hydrophila,Aeromonas hydrophila; [7],12.5 µg/mL
same,MIC (μg/mL) S. marcescens,Serratia marcescens; [8],12.5 µg/mL
same,MIC (μg/mL) P. aeruginosa,Pseudomonas aeruginosa; [9],50 µg/mL
same,MIC,E. coli DH5α,50 µg/mL
same,MIC (μg/mL) P. mirabilis,Proteus mirabilis; [10],12.5 µg/mL
PRT495 (CDCDLRGTSGDACNLEQGLCGCVEETGACPCKENVFGPQCNECREGTFALRADNPLGCSP; listed as Homo sapiens),MIC against E. cloacae,Enterobacter cloacae; [11],25 µg/mL
same,MIC against P. vulgaris,Proteus vulgaris; [11],12.5 µg/mL
same,MIC against K. pneumonia,Klebsiella pneumonia; [11],12.5 µg/mL
same,MIC against E. coli BL21,E. coli BL21; [11],50 µg/mL
same,MIC against C. diversus,Citrobacter diversus; [11],25 µg/mL
same,MIC against M. catarrhalis,Moraxella catarrhalis; [11],12.5 µg/mL
same,MIC against A. hydrophila,Aeromonas hydrophila; [11],50 µg/mL
same,MIC against S. marcescens,Serratia marcescens; [11],25 µg/mL
same,MIC against P. aeruginosa,Pseudomonas aeruginosa; [11],25 µg/mL
same,MIC,E. coli DH5α,25 µg/mL
same,MIC against P. mirabilis,Proteus mirabilis; [11],25 µg/mL
PRT424 (DINECVTDLHTCSRGEHCVNTLGSFHCYKALTCEPGYALKDGECE; listed as Homo sapiens),MIC,Enterobacter cloacae; [1],25 µg/mL
same,MIC,Proteus vulgaris; [2],50 µg/mL
same,MIC,Klebsiella pneumonia; [3],12.5 µg/mL
same,MIC,E. coli BL21; [4],50 µg/mL
same,MIC,Citrobacter diversus; [5],25 µg/mL
same,MIC,Moraxella catarrhalis; [6],12.5 µg/mL
same,MIC,Aeromonas hydrophila; [7],50 µg/mL
same,MIC,Serratia marcescens; [8],25 µg/mL
same,MIC,Pseudomonas aeruginosa; [9],25 µg/mL
same,MIC,E. coli DH5α,25 µg/mL
same,MIC,Proteus mirabilis; [10],25 µg/mL

# Source: patent publication US9833497B2, “Human originated EGF domain proteins and use of the same” (CHENGDU SOURCEBIO LIMITED-LIABILITY COMPANY, priority 2013, dated 2017)
